According to patent US5945436A, “Pyridylmethyl nitriles, amides and thioamides useful as fungicides” (Uniroyal Chemical Company, Inc., priority 1997, dated 1999):

Tests used:
Erysiphe graminis [1] = assay: Powdery mildew of barley, systemic root uptake (BMS); assay type: in vivo; conditions: 45 ml of 250 mg/l, 8 days after inoculation
Protocol: (§1) Compositions containing Compounds Nos. 1-81 were prepared by dissolving 0.24 grams of each of the compounds in 8 ml of acetone or other suitable inert solvent. Each of the resultant solutions was treated with 3 drops of TWEEN 20 (ethoxylated ethylene sorbitan monolaurate, a non-ionic surfactant)(I.C.I.), and water was added to form an emulsion. The degree of dilution with water was dictated by the desired concentration of the compound in the composition. The greater the quantity of water added, the lower the concentration of the compound in the composition, reported in milligrams per liter (mg/l) […] Upon reaching these ages, the plants were either treated with 45 ml of 250 mg/l concentration of the compositions of Example 9 or were left untreated. The untreated plants were used as controls. The 45 ml compositions saturated the soil of the treated pots without significant loss through drainage into the saucers below the pots. Twenty-four hours after the treatment with the compositions, both the barley and cucumber plants in all the pots, those treated and those untreated, were inoculated with powdery mildew fungus. This was accomplished by tapping leaves of previously infected barley and cucumber plants over the treated and untreated pots containing the barley and cucumber plants, respectively, to distribute spores of the fungus over the plants tested. […] Intermediate ratings were assigned depending on the degree of disease. […] The results of the powdery mildew disease control of barley are reported under the heading of "BMS". The results for cucumber mildew control are reported under the heading "CMS".

Erysiphe cichoracearum = assay: Powdery mildew of cucumber, systemic root uptake (CMS); assay type: in vivo; conditions: 45 ml of 250 mg/l, 8 days after inoculation
Protocol: as §1

Uromyces phaseoli = assay: Bean rust fungus eradicant test (URO PHA); assay type: in vivo; conditions: pinto bean, eradicant spray 2 days after inoculation, 1,000 mg/l
Protocol: Compositions containing Compounds Nos. 1-81 were prepared by dissolving 0.24 grams of each of the compounds in 8 ml of acetone or other suitable inert solvent. Each of the resultant solutions was treated with 3 drops of TWEEN 20 (ethoxylated ethylene sorbitan monolaurate, a non-ionic surfactant)(I.C.I.), and water was added to form an emulsion. The degree of dilution with water was dictated by the desired concentration of the compound in the composition. The greater the quantity of water added, the lower the concentration of the compound in the composition, reported in milligrams per liter (mg/l) A plurality of pots were each planted with two pinto bean plants, Phaseolus vulgaris, each, susceptible to rust disease. When the plants were 7 days old, at the primary leaf stage of growth, they were all sprayed with a suspension containing 20,000 spores of the bean rust fungus, Uromyces phaseoli, per ml. All the pots were then incubated in a controlled environmental chamber, maintained at 99% humidity and 21° C., for 24 hours to allow infection to occur. The plants were then removed from the incubator and allowed to dry. Two days after inoculation each of the infected plants was then either sprayed with one of the compositions of Example 9, at a dosage of 1,000 mg/l, or left unsprayed. The unsprayed plants acted as controls. All of the sprayed and unsprayed plants were then placed in a greenhouse at 21° C. for nine days to allow the disease to develop. […] Control of disease was determined by comparing treated plants with the untreated controls. The results, expressed as percent reduction of disease, are summarized in Table II under the heading "URO PHA".

Erysiphe polygoni = assay: Powdery mildew on pinto bean, foliar application (ERY POL); assay type: in vivo; conditions: similar procedure as barley (1,000 mg/l)
Protocol: (§2) Compositions containing Compounds Nos. 1-81 were prepared by dissolving 0.24 grams of each of the compounds in 8 ml of acetone or other suitable inert solvent. Each of the resultant solutions was treated with 3 drops of TWEEN 20 (ethoxylated ethylene sorbitan monolaurate, a non-ionic surfactant)(I.C.I.), and water was added to form an emulsion. The degree of dilution with water was dictated by the desired concentration of the compound in the composition. The greater the quantity of water added, the lower the concentration of the compound in the composition, reported in milligrams per liter (mg/l) Ten plants of "Robust" variety barley were planted in each of a plurality of pots. Each pot was then either sprayed with one of the compositions of Example 9, at a composition concentration of 1,000 mg/l, or left unsprayed. For each pot sprayed, one pot was left unsprayed as a control. After the leaves of the sprayed pots were dried, the sprayed pots and the unsprayed control pots were placed in a greenhouse maintained at 21° C. All the pots were then inoculated with barley powdery mildew fungus, Erysiphe graminis. This inoculation was accomplished by distributing spores of the fungus over the leaves of the plants to be tested from plants which had previously been infected with the mildew disease. […] Again, percent control was computed by comparing the treatment scores with the scores of the untreated controls. The results are summarized in Table II under the heading "ERY GRA". Using a similar procedure as described above for the barley, pinto bean plants were prepared, treated and inoculated with the fungus Erysiphe polygoni. The results of this testing are summarized in Table II under the heading "ERY POL".

Erysiphe graminis [2] = assay: Powdery mildew in barley, foliar application (ERY GRA); assay type: in vivo; conditions: foliar, 1,000 mg/l, 8 days after inoculation
Protocol: as §2, with “GRA".” for “GRA". Using a similar procedure as described above for the barley, pinto bean plants were prepared, treated and inoculated with the fungus Erysiphe polygoni. The results of this testing are summarized in Table II under the heading "ERY POL".”

Pyricularia oryzae = assay: whole plant or invertebrate; assay type: in vivo; conditions: barley, foliar, 1,000 mg/l
Helminthosporium sativum = assay: Barley spot blotch, foliar treatment (HEL SAT); assay type: in vivo; conditions: foliar, 1,000 mg/l
Protocol: Compositions containing Compounds Nos. 1-81 were prepared by dissolving 0.24 grams of each of the compounds in 8 ml of acetone or other suitable inert solvent. Each of the resultant solutions was treated with 3 drops of TWEEN 20 (ethoxylated ethylene sorbitan monolaurate, a non-ionic surfactant)(I.C.I.), and water was added to form an emulsion. The degree of dilution with water was dictated by the desired concentration of the compound in the composition. The greater the quantity of water added, the lower the concentration of the compound in the composition, reported in milligrams per liter (mg/l) Ten plants of six day-old Barley (variety "Robust") were planted in each of a plurality of pots. Each pot was then either sprayed with one of the compositions of Example 9, at a concentration of 1,000 mg/l, or left unsprayed. The unsprayed plants were used as controls. An equal number of pots were sprayed and unsprayed. All plants, sprayed and unsprayed, were thereafter inoculated with spores of the blotch fungus Helminthosporium sativum. All inoculated plants were placed in a 99% humidity chamber for 24 hours and then placed in a greenhouse, maintained at a temperature of 21° C., for eight days. […] Percent control was computed and the results are summarized in Table II under the heading "HEL SAT".

Septoria nodorum = assay: Fungal growth inhibition, treated disc on agar (SEP NOD); assay type: cell-based; conditions: disc dipped in 500 mg/l, 29° C.
Excerpt: (§3) Filter paper discs, each 11 mm. in diameter, were dipped in each of the test solutions. The discs were allowed to air dry to drive off the acetone solvent. A number of untreated discs were used as controls.
(§4) The treated and untreated discs were then placed on agar plates and one of the following fungus species: Septoria nodorum (SEP NOD), Botrytis cinerea (BOT CIN), Fusarium oxysporum (FUS OXY), Pythium ultimum (PYT ULT), Rhizoctonia solani (RHI SOL), Colletotrichum gossypii (COL GOS), and Scierotinia minor (SCL MIN), was added to the center of each disc in the form of a culture plug with the fungus mat in contact with the paper of the test disc. Cercosporidium personatum (CER PER), was added to discs as a spore suspension (20,000 spores/ml) to the disc (two drops of spore suspension per disc), rather than a mycelial culture plug. The plates were then incubated at 29° C. in an oven.
(§5) With the exception of the discs containing Cercosporidium personatum, the discs were evaluated by first measuring the radius from the center of the fungus colony on the treated discs and on the untreated discs. Percent growth inhibition of each of the compounds tested was determined as a function of the difference between the radius of the fungus colony on the treated disc versus the radius of the fungus colony on the untreated disc.

Pythium ultimum = assay: Fungal growth inhibition, treated disc on agar (PYT ULT); assay type: cell-based; conditions: disc dipped in 500 mg/l, 29° C.
Scierotinia minor = assay: Fungal growth inhibition, treated disc on agar (SCL MIN); assay type: cell-based; conditions: disc dipped in 500 mg/l, 29° C.
Excerpt: as §3, §4, §5

Rhizoctonia solani = assay: Fungal growth inhibition, treated disc on agar (RHI SOL); assay type: cell-based; conditions: disc dipped in 500 mg/l, 29° C.
Botrytis cinerea = assay: Fungal growth inhibition, treated disc on agar (BOT CIN); assay type: cell-based; conditions: disc dipped in 500 mg/l, 29° C.
Excerpt: as §3, §4, §5

Fusarium oxysporum = assay: Fungal growth inhibition, treated disc on agar (FUS OXY); assay type: cell-based; conditions: disc dipped in 500 mg/l, 29° C.
Colletotrichum gossypii = assay: Fungal growth inhibition, treated disc on agar (COL GOS); assay type: cell-based; conditions: disc dipped in 500 mg/l, 29° C.
Excerpt: as §3, §4, §5

## CCCCC(C#N)(CCc1ccc(OC)cc1)c1ccccn1 (centres unmarked) [Compound 27]
Erysiphe graminis [1]
  Percent Reduction of Disease, BMS: 0%
Erysiphe cichoracearum
  Percent Reduction of Disease, CMS: 0%
Uromyces phaseoli
  Percent Reduction of Disease, URO PHA: 100%
Erysiphe polygoni
  Percent Reduction of Disease, ERY POL: 90%
Erysiphe graminis [2]
  Percent Reduction of Disease, ERY GRA: 90%
Pyricularia oryzae
  Percent Reduction of Disease, PYR ORY: 70%
Helminthosporium sativum
  Percent Reduction of Disease, HEL SAT: 90%
Septoria nodorum
  Percent Growth Inhibition, SEP NOD: 10%
Pythium ultimum
  Percent Growth Inhibition, PYT ULT: 10%
Scierotinia minor
  Percent Growth Inhibition, SCL MIN: 93%
Rhizoctonia solani
  Percent Growth Inhibition, RHI SOL: 5%
Botrytis cinerea
  Percent Growth Inhibition, BOT CIN: 78%
Fusarium oxysporum
  Percent Growth Inhibition, FUS OXY: 10%
Colletotrichum gossypii
  Percent Growth Inhibition, COL GOS: 20%
